The subject of one data set is CCRF-CEM. In words: Cytotoxicity against human CCRF-CEM cells assessed as reduction in cell viability after 72 hrs by resazurin dye based assay. Type of data set: functional.
The subject of the next data set is ADR5000 cell line. Description: Cytotoxicity against human CEM/ADR5000 cells overexpressing P-gp assessed as reduction in cell viability after 72 hrs by resazurin dye based assay. The data set is classed as functional. The conditions noted are these: ADR5000, 72 h. In general terms: Resazurin is reduced to fluorescent resorufin, in cell work by metabolically active cells.

The test system of another data set is HFF. Description: Cytotoxicity against human HFF cells at 1 uM. Type of data set: cell-based.
A further data set concerns Plasmodium falciparum. Description: Antiplasmodial activity against Plasmodium falciparum 3D7 ring stage parasites infected in human erythrocytes after 72 hrs by SYBR Green 1 dye based fluorescence assay. The conditions noted are these: 3D7, 72 h. Type of data set: functional, organism-based.
For data set [1], the system named is Human betaherpesvirus 5. Description: Potency index, ratio of ganciclovir EC50 to compound EC50 for recombinant HCMV AD169 expressing GFP infected in human foreskin fibroblast. Type of data set: functional.
The subject of data set [2] is Human betaherpesvirus 5. In words: Potency index, ratio of artesunic acid EC50 to compound EC50 for recombinant HCMV AD169 expressing GFP infected in human foreskin fibroblast. The data set is classed as functional.

A value given as a limit tells only on which side of the number the result lay.

From ChEMBL document CHEMBL4145629, “Synthesis of Thymoquinone-Artemisinin Hybrids: New Potent Antileukemia, Antiviral, and Antimalarial Agents” (ACS Med Chem Lett, 2018) come the findings set out here.

Take `CC1=C(CCCCOC(=O)CCC(=O)OCC(C[C@H]2O[C@@H]3O[C@@]4(C)CC[C@H]5[C@H](C)CC[C@@H]([C@H]2C)[C@@]35OO4)C[C@H]2O[C@@H]3O[C@@]4(C)CC[C@H]5[C@H](C)CC[C@@H]([C@H]2C)[C@@]35OO4)C(=O)C(C(C)C)=CC1=O` (stereo partly specified): the values for the EC50 with CCRF-CEM, with ADR5000 cell line and in the data set on Plasmodium falciparum were 2.7 nM, 7870 nM and 12.2 nM, respectively. The compound also returned an Activity in the data set on HFF of 50%.
For `CC1=C(CCCCOC(=O)CCC(=O)O[C@@H]2O[C@@H]3O[C@@]4(C)CC[C@H]5[C@H](C)CC[C@@H]([C@H]2C)[C@@]35OO4)C(=O)C(C(C)C)=C(CCCCOC(=O)CCC(=O)O[C@@H]2O[C@@H]3O[C@@]4(C)CC[C@H]5[C@H](C)CC[C@@H]([C@H]2C)[C@@]35OO4)C1=O` the same measures were 6070 nM, 5660 nM, 12.1 nM and 50%.
Regarding `CC1=C(CCCOC2O[C@@H]3O[C@@]4(C)CC[C@H]5[C@H](C)CC[C@@H]([C@H]2C)[C@@]35OO4)C(=O)C(C(C)C)=CC1=O` (stereo partly specified), the EC50 (in general, the concentration at which the effect is half-maximal) in the data set with CCRF-CEM is 200 nM; in the data set on ADR5000 cell line it was 200 nM; in the data set with Plasmodium falciparum, 5.9 nM. Also, the “Ratio EC50” value in the data set with Human betaherpesvirus 5 [1] amounted to 5; with Human betaherpesvirus 5 [2], 8.
Take `C[C@H]1[C@H](OC(=O)CCC(=O)O)O[C@@H]2O[C@@]3(C)CC[C@H]4[C@H](C)CC[C@@H]1[C@@]24OO3` [ARTESUNATE]: the EC50 in the data set on CCRF-CEM came out at 400 nM; with ADR5000 cell line it was 100 nM; in the data set on Plasmodium falciparum it was 8.2 nM.
With `CC1=CC(=O)C(C(C)C)=CC1=O` [THYMOQUINONE], in the data set on Plasmodium falciparum, the EC50 was above 80000 nM.
`CC1=C(CCOC(=O)CCC(=O)O[C@@H]2O[C@@H]3O[C@@]4(C)CC[C@H]5[C@H](C)CC[C@@H]([C@H]2C)[C@@]35OO4)C(=O)C(C(C)C)=CC1=O`: the figures for the concentration for a half-maximal effect (EC50) in the data set with CCRF-CEM, in the data set on ADR5000 cell line and with Plasmodium falciparum were 1200 nM, 1000 nM and 8.2 nM, respectively.
On the same counts, the results for `CC1=C(CCCOC(=O)CC(=O)OCCOC(=O)CCC(=O)O[C@@H]2O[C@@H]3O[C@@]4(C)CC[C@H]5[C@H](C)CC[C@@H]([C@H]2C)[C@@]35OO4)C(=O)C(C(C)C)=CC1=O` are 80 nM, 8200 nM and 4.4 nM.
On the same counts, the results for `CC1=C(CCCOC(=O)CCC(=O)O[C@@H]2O[C@@H]3O[C@@]4(C)CC[C@H]5[C@H](C)CC[C@@H]([C@H]2C)[C@@]35OO4)C(=O)C(C(C)C)=C(CCCOC(=O)CCC(=O)O[C@@H]2O[C@@H]3O[C@@]4(C)CC[C@H]5[C@H](C)CC[C@@H]([C@H]2C)[C@@]35OO4)C1=O` are 200 nM, 200 nM and 4.3 nM.
`CC1=C(CCCCOC(=O)CCC(=O)O[C@@H]2O[C@@H]3O[C@@]4(C)CC[C@H]5[C@H](C)CC[C@@H]([C@H]2C)[C@@]35OO4)C(=O)C(C(C)C)=CC1=O`: the values for the EC50 in the data set on CCRF-CEM, in the data set with ADR5000 cell line and with Plasmodium falciparum were 1400 nM, 800 nM and 7.7 nM, respectively.
In the data set on Plasmodium falciparum, `CC1=C(CCCCOC(=O)C[C@H]2O[C@@H]3O[C@@]4(C)CC[C@H]5[C@H](C)CC[C@@H]([C@H]2C)[C@@]35OO4)C(=O)C(C(C)C)=CC1=O` gave an EC50 of 17.5 nM.
For the compound `CC1=C(CCCOC(=O)C[C@H]2O[C@@H]3O[C@@]4(C)CC[C@H]5[C@H](C)CC[C@@H]([C@H]2C)[C@@]35OO4)C(=O)C(C(C)C)=CC1=O`, the response in the data set with Plasmodium falciparum was half-maximal at 54 nM (EC50).
Take `CC1=C(CCCCOC2O[C@@H]3O[C@@]4(C)CC[C@H]5[C@H](C)CC[C@@H]([C@H]2C)[C@@]35OO4)C(=O)C(C(C)C)=CC1=O` (stereo partly specified): the half-maximal effective concentration (EC50) in the data set on CCRF-CEM is 300 nM; in the data set with ADR5000 cell line it was 200 nM; in the data set with Plasmodium falciparum, 3.7 nM. Besides, the “Ratio EC50” value is given as 5 with Human betaherpesvirus 5 [1] and 8 with Human betaherpesvirus 5 [2].
`CC1=C(CCCOC(=O)CCC(=O)O[C@@H]2O[C@@H]3O[C@@]4(C)CC[C@H]5[C@H](C)CC[C@@H]([C@H]2C)[C@@]35OO4)C(=O)C(C(C)C)=CC1=O`: the EC50 is 500 nM in the data set with CCRF-CEM, 1300 nM in the data set on ADR5000 cell line and 6.9 nM in the data set with Plasmodium falciparum.
For `COc1cccc2c1C(=O)c1c(O)c3c(c(O)c1C2=O)C[C@@](O)(C(=O)CO)C[C@@H]3O[C@H]1C[C@H](N)[C@H](O)[C@H](C)O1` [DOXORUBICIN], the results for the 50% effective concentration (EC50) with CCRF-CEM and with ADR5000 cell line were 9 nM and 23300 nM, respectively.
